# Like-named read-outs stand apart in the source and are kept apart here.
# What was measured:
# [1] = biological target: GTPγS-bound human HRasG12V / human c-Raf-1 Ras binding domain (RBD) (Homo sapiens (Human), UniProt P01112, G12V); assay: Ras-Raf binding inhibition ELISA
# Experimental: The in vitro Ras-Raf binding inhibitory activity of the compound of the present invention was evaluated by an ELISA method (Enzyme-Linked ImmunoSorbent Assay) described below.
# Ras and Raf used upon the evaluation were purified and activated by the following method.
# Using a pGEX6P-1 vector (GE Healthcare), human HRasG12V (full length, 1-189 amino acid residues) and human c-Raf-1 Ras binding domain (RBD) (50-131 amino acid residues) were each allowed to express as a fusion body with glutathione S-transferase (GST) in E. coli.
# GST-HRasG12V-expressing cells were subjected to ultrasonication in a buffer {50 mM Tris-HCl pH 7.4, 150 mM NaCl, 5 mM MgCl2, 1 mM ethylenediaminetetraacetic acid (EDTA), 1 mM dithiothreitol (DTT), 10% glycerol, and 1% Triton-X100}, and were then centrifuged at 100,000×g for 30 minutes, so as to collect the supernatant as a Ras protein fraction. HRasG12V in the supernatant was immobilized on a glutathione-agarose resin, and GST was then cleaved with PreScission Protease (GE Healthcare) for purification. The obtained HRasG12V was mixed with guanosine 5′-O-[gamma-thio]triphosphate trisodium salt (GTPTS) of 1000 times higher concentration at 30° C. for 1 hour, and thereafter, 20 mM MgCl2 (final concentration) was added to stop the reaction and collect the GTPgS-loaded HRasG12V as a product.
# On the other hand, GST-c-Raf-1 RBD-expressing cells were subjected to ultrasonication in the same buffer as described above, and were then centrifuged at 100,000×g for 30 minutes, so as to collected the supernatant as a GST-c-Raf-1 RBD protein fraction.
# The in vitro Ras-Raf binding inhibitory activity of the compound of the present invention was evaluated by an ELISA method described below.
# GST-c-Raf-1 RBD diluted with a Ras-Raf binding buffer (50 mM Tris-HCl pH7.4, 150 mM NaCl, 5 mM MgCl2, 1 mM EDTA, and 1% Triton-X100) was added to each well of a glutathione-coated 96-well plate (Thermo Fisher Scientific.), and was incubated at 30° C. for 1 hour, to immobilize Raf on the well. The unbound free Raf was eliminated by washing the well with the Ras-Raf binding buffer three times. Subsequently, GTPTS-bound HRasG12V diluted with the Ras-Raf binding buffer and each compound solution (final DMSO concentration: 10%) were applied to each well, and the resulting mixture was then incubated at 30° C. for 1 hour, so that Ras and Raf were allowed to bind to each other. Thereafter, the plate was washed with the Ras-Raf binding buffer twice, and was then subjected to a blocking treatment at room temperature for 20 minutes, using TBS-Tween {10 mM Tris-HCl pH 7.4, 150 mM NaCl, and 0.05% (w/v) Tween-20}-5% (w/v) bovine serum albumin (BSA). After that, an anti-HRas antibody (C-20, Santa Cruz) or an anti-HRas antibody (259, Santa Cruz), which had been 1000 times diluted with TBS-Tween-5% BSA, was added to the reaction mixture, and incubated at room temperature for 1 hours. After the treatment with the primary antibody, the plate was washed with TBS-Tween-5% BSA three times, and a horseradish peroxidase-labeled secondary antibody against rabbit immunoglobulin G (GE Healthcare) of 1000 times diluted with TBS-Tween-5% BSA, was added to the plate, followed by incubation at room temperature for 1 hour. After the treatment with the secondary antibody, the plate was washed with TBS-Tween-5% BSA three times, and a substrate solution (TMB) was then added to the plate, followed by incubation at room temperature for 15 minutes for coloration. Finally, 2 M H2SO4 was added to stop color development (coloration reaction kit: Nacalai Tesque). The absorbance at 450 nm (OD450) was measured, so that the color intensity was quantified. Inhibition by the test compound was determined according to the following equation: […]
# IC50 (*) in which the anti-HRas antibody (259, Santa Cruz) was used
# [2] = test system: acute lymphoblastic leukemia cells CCRF-CEM (K-RasG12D); assay: Cell growth inhibition, suspension cells CCRF-CEM; type: cell-based; details: Homo sapiens, 72 hours; for inhibition at 1 µM: read-out: CCRF-CEM (KRasG12D) % inhibition at 1 μM; for inhibition at 10 µM: read-out: CCRF-CEM (KRasG12D) % inhibition at 10 μM (**)
# Experimental: (§1) The cell growth inhibitory activity of the compound of the present invention on human culture cells having active-type mutation in Ras was evaluated by the below-mentioned method using suspension cancer cells {acute lymphoblastic leukemia cells CCRF-CEM (K-RasG12D), promyelocytic leukemia cells HL60 (N-RasQ61L), acute lymphoblastic leukemia cells MOLT4 (N-RasG12C), and small cell lung cancer cells SHP77 (K-RasG12V)} and adherent cancer cells {large bowel cancer cells SW480 (K-RasG12V) and large bowel cancer cell SW620 (K-RasG12V)}.
# (§2) (Case of suspension cells) The cells suspended in a medium containing 0.5% (v/v) fetal bovine serum (FBS) and each compound solution (final DMSO concentration: 1%) were seeded on a 96-well plate (2 to 4×10^4 cells/well), and the resulting mixture was then cultured at 37° C. in the presence of 5% CO2 for 72 hours.
# (§3) Thereafter, the number of viable cells was measured using Cell Counting Reagent (Nacalai Tesque) in accordance with the manufacturer's instructions. Inhibition by the test compound was determined according to the following equation: […]
# [3] = test system: promyelocytic leukemia cells HL60 (N-RasQ61L); assay: Cell growth inhibition, suspension cells HL60; type: cell-based; details: Homo sapiens, HL-60, 72 hours; for inhibition at 10 µM: read-out: HL-60 (NRasQ61L) % inhibition at 10 μM (***); for inhibition at 1 µM: read-out: HL-60 (NRasQ61L) % inhibition at 1 μM
# Experimental: as §1, §2, §3
# [4] = test system: large bowel cancer cell SW620 (K-RasG12V); assay: Cell growth inhibition, adherent cells SW620; type: cell-based; details: Homo sapiens, SW-620, 72 hours
# Experimental: as §1
# (Case of adherent cells) The cells suspended in a medium containing 10% FBS (1 to 2×10^4 cells/well) were seeded on a 96-well plate, and were then cultured at 37° C. in the presence of […]. Thereafter, the medium was exchanged with a medium containing […], to which each compound solution (final DMSO concentration: […]) had been added, and the cells were then cultured at 37° C. in the presence of […] for 72 hours.
# as §3
# [5] = anti-HRas antibody C-20, read-out: ELISA IC50 (μM): 1st Ab_C-20
# [6] = anti-HRas antibody 259 (*), read-out: ELISA IC50 (μM): 1st Ab_259 (*)
# Sequence of GTPγS-bound human HRasG12V / human c-Raf-1 Ras binding domain (RBD) (P01112 whole entry G12V, the tested form may be a part): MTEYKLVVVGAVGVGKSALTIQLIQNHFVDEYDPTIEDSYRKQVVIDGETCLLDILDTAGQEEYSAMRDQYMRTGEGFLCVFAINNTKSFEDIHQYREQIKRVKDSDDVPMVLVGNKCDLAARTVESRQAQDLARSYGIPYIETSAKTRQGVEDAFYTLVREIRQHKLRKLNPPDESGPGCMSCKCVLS
Structure (SMILES),"IC50 [1, 5] [µM]",inhibition at 1 µM [2] [%],inhibition at 10 µM [2] [%],further results
"CC(=O)N1/C(=C\c2ccc3cc(CN4CCOCC4)ccc3n2)C(=O)c2ccccc21 [Example 35, (Z)-1-acetyl-2-((6-(morpholino-methyl)quinolin-2-yl)methylene)-indolin-3-one]",2.6,40,,
"CC(=O)N1/C(=C\c2ccc3cc(C(=O)N4CCS(=O)(=O)CC4)ccc3n2)C(=O)c2ccccc21 [Example 60, (Z)-1-acetyl-2-((6-(1,1-dioxido-thiomorpholine-4-carbonyl)quinolin-2-yl)methylene)-indolin-3-one]",6,,99,
CC(=O)N1/C(=C\c2ccc3cc(CNC4CCS(=O)(=O)CC4)ccc3n2)C(=O)c2ccccc21 [Example 133],,,80,"inhibition at 10 µM [3]: 99%; IC50 [1, 6]: 1.8 µM"
"CC(=O)N1/C(=C\c2ccc3cc(C(=O)N4CCC(N5CCOCC5)CC4)ccc3n2)C(=O)c2ccccc21 [Example 115, (Z)-1-acetyl-2-((6-(4-morpholino-piperidine-1-carbonyl)quinolin-2-yl)methylene)-indolin-3-one]",11,,98,
"CC(=O)N1/C(=C\c2ccc3cc(CO)ccc3n2)C(=O)c2ccccc21 [Example 33, (Z)-1-acetyl-2-((6-(hydroxymeth-yl)quinolin-2-yl)-methylene)indolin-3-one]",3.1,94,,
"COCCN1CCN(C(=O)c2ccc3nc(/C=C4/C(=O)c5ccccc5N4C(C)=O)ccc3c2)CC1 [Example 116, (Z)-1-acetyl-2-((6-(4-(2-methoxy-ethyl)piperazine-1-carbonyl)quinolin-2-yl)methylene)-indolin-3-one]",,,98,
"CC(=O)N1/C(=C\c2ccc3cc(CN4CCS(=O)(=O)CC4)ccc3n2)C(=O)c2ccccc21 [Example 107, (Z)-1-acetyl-2-((6-((1,1-dioxido-thiomorpholino)-methyl)quinolin-2-yl)methylene)-indolin-3-one]",1.7,,81,inhibition at 10 µM [3]: 82%
"CC(=O)N1/C(=C\c2ccc3cc(CN(C)C4CCOCC4)ccc3n2)C(=O)c2ccccc21 [Example 71, (Z)-1-acetyl-2-((6-((methyl(tetra-hydro-2H-pyran-4-yl)amino)meth-yl)quinolin-2-yl)-methylene)indolin-3-one]",2.4,,82,inhibition at 1 µM [3]: 41%
"CC(=O)N1/C(=C\c2nc3cc(CNC4CCOCC4)ccc3s2)C(=O)c2ccccc21 [Example 132, (Z)-1-acetyl-2-((5-(((tetrahydro-2H-pyran-4-yl)-amino)methyl)-benzo[d]thiazol-2-yl)methylene)-indolin-3-one]",,38,,"inhibition at 1 µM [3]: 42%; IC50 [1, 6]: 1.2 µM"
"CC(=O)N1/C(=C/c2nc(C(=O)N3CCOCC3)cs2)C(=O)c2ccccc21 [Example 55, (E)-1-acetyl-2-((4-(morpholine-4-carbonyl)thiazol-2-yl)methylene)-indolin-3-one]",,,78,inhibition at 10 µM [3]: 96%
"CC(=O)N1C(=Cc2cc(-c3ccc4c(c3)CCNC4=O)c3cc(C(=O)N4CCOCC4)ccc3n2)C(=O)c2ccccc21 (racemic) [Example 147, 6-(2-((1-acetyl-3-oxoindolin-2-ylidene)methyl)-6-(morpholine-4-carbonyl)quinolin-4-yl)-3,4-dihydro-isoquinolin-1(2H)-one]",0.5,,,"inhibition at 3.2 µM ([3]; 3.2 μM (****), read-out: HL-60 (NRasQ61L) % inhibition at 3.2 μM (****)): 59.1%; inhibition at 3.2 µM ([4]; 3.2 μM (***), read-out: SW620 (KRasG12V) % inhibition at 3.2 μM (***)): 92.2%; inhibition at 1 µM [1]: 66.1%"
"CC(=O)N1/C(=C\c2ccc(OS(C)(=O)=O)cn2)C(=O)c2ccccc21 [Example 61, (Z)-6-((1-acetyl-3-oxoindolin-2-ylidene)methyl)-pyridin-3-yl methanesulfonate]",2.7,35,,
"CC(=O)N1/C(=C\c2cc(-c3cccc4cccnc34)c3cc(C(=O)N4CCOCC4)ccc3n2)C(=O)c2ccccc21 [Example 91, (Z)-1-acetyl-2-((6-(morpholine-4-carbonyl)-[4,8′-biquinolin]-2-yl)-methylene)indolin-3-one]",0.87,,,"inhibition at 3.3 µM ([3]; 3.3 μM (**), read-out: HL-60 (NRasQ61L) % inhibition at 3.3 μM (**)): 97%; inhibition at 1 µM ([4]; 1 μM, read-out: SW620 (KRasG12V) % inhibition at 1 μM): 70%"

# Source: patent US20250091994A1, “RAS/RAF BINDING INHIBITOR COMPOUND” (NATIONAL UNIVERSITY CORPORATION KOBE UNIVERSITY, priority 2021, published 2025)
